Reference: publication PMC7412250, “Novel Chrysin-De-Allyl PAC-1 Hybrid Analogues as Anticancer Compounds: Design, Synthesis, and Biological Evaluation” (Molecules, 2020)

Assays:
MDA-MB-231 cells [1] = assay: MTT cytotoxicity assay, MDA-MB-231; format: cell-based, human; details: Homo sapiens; MDA-MB-231, MTT, mean ± SD of two independent experiments in triplicate; read-out: IC50 (cell survival)
Method: The synthesized chrysin derivatives were evaluated for cytotoxic efficacy in the human breast cancer cell line, MDA-MB-231, using the 3-(4,5-dimethylthiazol-2yl)-2,5-diphenyltetrazolium bromide (MTT) colorimetric assay and doxorubicin was used as a reference anticancer drug.
(§1) A panel of cancer cell lines, including breast (MDA-MB-231, BT20), brain (U251), and colon (HCT116), as well as a normal cell line (human mammary epithelial cells: HMECs), were grown as adherent monolayers in flasks with Dulbecco’s Modified Eagle Medium (DMEM), supplemented with 10% fetal bovine serum (FBS) and 1% penicillin and streptomycin in a humidified incubator with 5% CO2 at 37 °C.
The (3-(4,5-dimethylthiazol-2-yl)-2,5-diphenyltetrazolium bromide) (MTT) assay was used to determine the cytotoxicity of the 15 chrysin derivatives in the above-mentioned cell lines. Briefly, cells were harvested with 0.05% trypsin, 2.21 mM ethylenediaminetetraacetic acid (EDTA), 1× from Corning (Corning, NY, USA), and suspended at a final density of 5 × 10^3 cells/well. Cells were seeded (180 μL/well) into 96-well plates. Initially, four different concentrations of each compound were added to find the compounds with the greatest antiproliferative efficacy in the MDA-MB-231 cell line (0, 1, 10, and 100 μM). Subsequently, […] different concentrations […] of each compound were added to the remaining cell lines mentioned above. After 68 h of incubation, 20 μL of the MTT solution (4 mg/mL) were added to each well, and the plates were incubated for 4 h. This allowed viable cells to biotransform the yellow-colored MTT into dark-blue formazan crystals. Subsequently, the medium was discarded, and 150 μL of DMSO were added to each well to dissolve the formazan crystals. The absorbance was determined at 590 nm using a DTX 880 multimode detector (Beckman Coulter life sciences, IN, USA). […] The IC50 values were calculated from the cell survival percentages obtained for each compound tested at different concentrations. Similarly, the cytotoxicity of the test compounds was compared to the normal cell line (HMEC).

MDA-MB-231 cells [2] = assay: Cell cycle analysis by PI flow cytometry; format: cell-based, human; details: 24 h, vehicle 4.46%
Method: MDA-MB-231 cells were plated into 6-well plates at 2.5 × 10^5 cells/well. […] Next, the cells were trypsinized with 0.05% trypsin, 2.21 mM EDTA, 1×, washed, counted, and resuspended in 1 mL of ice-cold PBS. The cells then were stained with propidium iodide (PI) dye and incubated for at least 15 min. The distribution of the cells in each cell cycle phase for the different concentrations was measured using a BD Accuri™ C6 flow cytometer from BD Biosciences (Becton-Dickinson, San Jose, CA, USA) and analyzed using FCS Express 5 plus De Novo software (Glendale, CA, USA).

BT-20, U-251, and HCT116 = assay: MTT cytotoxicity assay, three cancer cell lines stated together; format: cell-based; details: range across the three cancer cell lines, read-out: IC50 values, range over BT-20, U-251 and HCT116
Method: as §1
The (3-(4,5-dimethylthiazol-2-yl)-2,5-diphenyltetrazolium bromide) (MTT) assay was used to determine the cytotoxicity of the 15 chrysin derivatives in the above-mentioned cell lines. Briefly, cells were harvested with 0.05% trypsin, 2.21 mM ethylenediaminetetraacetic acid (EDTA), 1× from Corning (Corning, NY, USA), and suspended at a final density of 5 × 10^3 cells/well. Cells were seeded (180 μL/well) into 96-well plates. Initially, four different concentrations of each compound were added to find the compounds with the greatest antiproliferative efficacy in the MDA-MB-231 cell line (0, 1, 10, and 100 μM). […] The absorbance was determined at 590 nm using a DTX 880 multimode detector (Beckman Coulter life sciences, IN, USA). The IC50 ± SD concentrations were calculated from three experiments performed in triplicate/duplicate. The IC50 values were calculated from the cell survival percentages obtained for each compound tested at different concentrations. […]

Structure (SMILES)	IC50 (MDA-MB-231 cells [1]) [µM]	% of cells in G2 phase (MDA-MB-231 cells [2]; 5 µM) [%]	% of cells in G2 phase (MDA-MB-231 cells [2]; 10 µM) [%]	IC50 (BT-20, U-251, and HCT116) [µM]
O=C(COc1cc(O)c2c(=O)cc(-c3ccccc3)oc2c1)N/N=C/c1ccc(O)cc1O [Compound 4g, (E,Z)-N’-(2,4-Dihydroxybenzylidene)-2-((5-hydroxy-4-oxo-2-phenyl-4H-chromen-7-yl)oxy)acetohydrazide]	5.98 ± 2.25	59.12	54.13	–
O=C(COc1cc(O)c2c(=O)cc(-c3ccccc3)oc2c1)N/N=C/c1ccc(O)c(O)c1O [Compound 4i, (E,Z)-2-((5-Hydroxy-4-oxo-2-phenyl-4H-chromen-7-yl)oxy)-N’-(2,3,4-trihydroxybenzylidene)acetohydrazide]	9.4 ± 1.45	–	–	10 to 25
